Measurements reported in patent publication US8618163B2, “Derivatives of cycloalkyl- and cycloalkenyl-1,2-dicarboxylic acid compounds having formyl peptide receptor like-1 (FPRL-1) agonist or antagonist activity” (Allergan, Inc., priority 2010, dated 2013).
Where two headings read alike, the source gives them in different places.

Key:
FPRL1 = target: T1, FPRL1 (Homo sapiens, UniProt P25090); assay: compound-induced calcium activity on FLIPR Tetra in CHO-Gal6 cells stably expressing FPRL1; assay type: cell-based; conditions: for FPRL1 (rel. eff.): relative efficacy
T1 construct: expressed in transfected cells; host or cells: CHO-Gal6 (CHO cells with G alpha 16)
T1 sequence (P25090 1-351): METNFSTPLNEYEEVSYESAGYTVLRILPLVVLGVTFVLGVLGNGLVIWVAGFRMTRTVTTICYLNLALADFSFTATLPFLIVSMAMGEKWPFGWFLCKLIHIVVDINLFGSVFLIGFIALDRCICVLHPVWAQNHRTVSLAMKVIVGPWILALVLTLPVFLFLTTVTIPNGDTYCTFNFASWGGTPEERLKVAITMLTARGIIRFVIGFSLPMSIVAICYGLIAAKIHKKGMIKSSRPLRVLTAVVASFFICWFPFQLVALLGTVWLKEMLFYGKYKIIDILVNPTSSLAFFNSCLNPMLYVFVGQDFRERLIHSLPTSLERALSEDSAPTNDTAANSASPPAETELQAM
Description: (§1) CHO-Gal6 cells stably expressing FPRL1 were cultured in (F12, 10% FBS, 1% PSA, 400 μg/ml geneticin and 50 μg/ml hygromycin) and HEK-Gqi5 cells stable expressing FPR1 were cultured in (DMEM high glucose, 10% FBS, 1% PSA, 400 μg/ml geneticin and 50 μg/ml hygromycin). In general, the day before the experiment, 18,000 cells/well were plated in a 384-well clear bottom poly-d-lysine coated plate. The following day the screening compound-induced calcium activity was assayed on the FLIPR^Tetra. The drug plates were prepared in 384-well microplates using the EP3 and the MultiPROBE robotic liquid handling systems. Compounds were tested at concentrations ranging from 0.61 to 10,000 nM. Results are expressed as EC50 (nM) and efficacy values.

FPR1 = target: T2, FPR1 (Homo sapiens, UniProt P21462); assay: compound-induced calcium activity on FLIPR Tetra in HEK-Gqi5 cells stable expressing FPR1; assay type: cell-based; design: FPR1 (rel. eff.): scale not given here; conditions: for FPR1 (rel. eff.): relative efficacy
T2 construct: expressed in transfected cells; host or cells: HEK-Gqi5 (HEK cells with chimeric G protein Gqi5)
T2 sequence (P21462 1-350): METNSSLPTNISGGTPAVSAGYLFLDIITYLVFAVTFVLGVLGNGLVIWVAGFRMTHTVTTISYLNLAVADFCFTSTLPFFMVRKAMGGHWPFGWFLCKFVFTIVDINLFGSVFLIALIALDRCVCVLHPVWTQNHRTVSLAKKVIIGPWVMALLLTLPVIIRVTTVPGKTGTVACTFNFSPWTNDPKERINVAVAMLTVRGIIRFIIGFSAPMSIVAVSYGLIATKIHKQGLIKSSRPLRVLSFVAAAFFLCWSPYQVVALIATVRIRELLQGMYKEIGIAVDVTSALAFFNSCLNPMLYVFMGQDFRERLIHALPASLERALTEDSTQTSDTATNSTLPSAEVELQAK
Description: as §1

[1] = calcium, FLIPR Tetra, tested 0.61 to 10,000 nM, read-out: FPRL1 EC50
[2] = class symbol NA, read-out: FPR1 EC50 (NA = Not Active)
[3] = calcium, FLIPR Tetra, tested 0.61 to 10,000 nM, read-out: FPR1 EC50

For `O=C(O)C1C(C(=O)Nc2ccc(SC(F)(F)F)cc2)C2C=CC1C21CC1` (racemic) [Compound 4, (+/−)-(1S,4R,5S,6R)-6-(4-(Trifluoromethylthio)phenylcarbamoyl)Spiro[bicyclo[2.2.1]hept[2]ene-7,1′-cyclopropane]-5-carboxylic Acid], the EC50 (FPRL1; [1]) was 709 nM, the “FPRL1 (rel. eff.)” value (FPRL1; calcium, FLIPR Tetra) was 0.84 and the EC50 (FPR1; [2]) was greater than 10 µM.

Molecule `CC(C)(C)c1ccc(NC(=O)C2C(C(=O)O)C3C=CC2C32CC2)cc1` (racemic) [Compound 5, (+/−)-(1R,4S,5R,6S)-5-(4-tert-Butylphenylcarbamoyl)spiro[bicyclo[2.2.1]hept[2]ene-7,1′-cyclopropane]-6-carboxylic Acid] has an EC50 (FPRL1; class symbol NA, read-out: FPRL1 EC50 (NA = Not Active)) greater than 10000 nM and an EC50 (FPR1; [2]) greater than 10 µM.

In the case of `CC(C)c1ccc(NC(=O)C2C(C(=O)O)C3C=CC2C32CC2)cc1` (racemic) [Compound 6, (+/−)-(1S,4R,5S,6R)-6-(4-Isopropylphenylcarbamoyl)spiro[bicyclo[2.2.1]hept[2]ene-7,1′-cyclopropane]-5-carboxylic Acid], the “FPRL1 (rel. eff.)” value (FPRL1; calcium, FLIPR Tetra) is reported as “ND (0.39)” and the EC50 (FPR1; [2]) is reported as greater than 10 µM.

In the case of `O=C(O)C1C(C(=O)Nc2ccccc2)C2C=CC1C21CC1` (racemic) [Compound 7, (+/−)-(1S,4R,5S,6R)-6-(Phenylcarbamoyl)spiro[bicycle[2.2.1]hept[2]ene-7,1′cyclopropane]-5-carboxylic Acid], the “FPRL1 (rel. eff.)” value (FPRL1; calcium, FLIPR Tetra) is reported as “ND (0.33)” and the EC50 (FPR1; [2]) is reported as greater than 10 µM.

`NS(=O)(=O)c1ccc(NC(=O)C2C(C(=O)O)C3C=CC2C32CC2)cc1` (racemic) [Compound 8, (+/−)-(1S,4R,5S,6R)-6-(4-Sulfamoylphenylcarbamoyl)spiro[bicyclo[2.2.1]hept[2]ene-7,1′-cyclopropane]-5-carboxylic Acid] was tested, and the EC50 (FPRL1; [1]) was 2710 nM, the “FPRL1 (rel. eff.)” value (FPRL1; calcium, FLIPR Tetra) was 0.51 and the EC50 (FPR1; [2]) was greater than 10 µM.

`O=C(O)[C@@H]1[C@H](C(=O)Nc2ccc(I)cc2)[C@@H]2CC[C@H]1C21CC1` (racemic) [Compound 9, (+/−)-(1R,2S,3R,4S)-3-(4-Iodophenylcarbamoyl)spiro[bicyclo[2.2.1]heptane-7,1′-cyclopropane]-2-carboxylic Acid] was tested, and the EC50 (FPRL1; [1]) was 1 nM, the “FPRL1 (rel. eff.)” value (FPRL1; calcium, FLIPR Tetra) was 0.80 and the EC50 (FPR1; [3]) was 0.269 µM. For the same molecule, the “FPR1 (rel. eff.)” value (FPR1; calcium, FLIPR Tetra) was 0.73.

`O=C(O)C1C(C(=O)Nc2ccc(Br)cc2)C2CCC1C21CC1` (racemic) [Compound 10A] was tested, and the EC50 (FPRL1; [1]) was 278 nM, the “FPRL1 (rel. eff.)” value (FPRL1; calcium, FLIPR Tetra) was 0.82 and the EC50 (FPR1; [2]) was greater than 10 µM.

For `O=C(O)[C@@H]1[C@H](C(=O)Nc2ccc(Cl)cc2)[C@@H]2CC[C@H]1C21CC1` (racemic) [Compound 11, (+/−)-(1R,2S,3R,4S)-3-(4-Chlorophenylcarbamoyl)spiro[bicyclo[2.2.1]heptane-7,1′-cyclopropane]-2-carboxylic Acid], the EC50 (FPRL1; [1]) was 43 nM and the “FPRL1 (rel. eff.)” value (FPRL1; calcium, FLIPR Tetra) was 0.86.

In the case of `CC1(C)[C@@H]2CC[C@H]1[C@@H](C(=O)Nc1ccc(I)cc1)[C@H]2C(=O)O` (racemic) [Compound 12, (+/−)-(1R,2S,3R,4S)-3-(4-Iodophenylcarbamoyl)-7,7-dimethylbicyclo[2.2.1]heptane-2-carboxylic Acid], the EC50 (FPR1; [3]) is reported as 0.343 µM and the “FPR1 (rel. eff.)” value (FPR1; calcium, FLIPR Tetra) is reported as 68.

With `CC1(C)[C@@H]2CC[C@H]1[C@@H](C(=O)Nc1ccc(Br)cc1)[C@H]2C(=O)O` (racemic) [Compound 13, (+/−)-(1R,2S,3R,4S)-3-(4-Bromophenylcarbamoyl)-7,7-dimethylbicyclo[2.2.1]heptane-2-carboxylic Acid] the “FPRL1 (rel. eff.)” value (FPRL1; calcium, FLIPR Tetra) was 0.85, the EC50 (FPR1; [3]) was 0.639 µM and the “FPR1 (rel. eff.)” value (FPR1; calcium, FLIPR Tetra) was 0.33.

In the case of `COC(=O)C1C(C(=O)Nc2ccc(I)cc2)C2C=CC1C21CC1` (racemic) [Compound 16, Methyl(+/−)-(1S,4R,5S,6R)-6-(4-Iodophenylcarbamoyl)spiro[bicyclo[2.2.1]hept[2]ene-7,1′-cyclopropane]-5-carboxylate], the EC50 (FPRL1; [1]) is reported as 403 nM and the “FPRL1 (rel. eff.)” value (FPRL1; calcium, FLIPR Tetra) is reported as 0.72.

With `CC(C)=C1C2C=CC1C(C(=O)Nc1ccc(I)cc1)C2C(=O)O` (racemic) [Compound 22, (+/−)-(1S,4R,5S,6R)-6-(4-Iodophenylcarbamoyl)[bicyclo[2.2.1]hept[2]ene-7-propan-2-ylidene]-5-carboxylic Acid] the EC50 (FPR1; [3]) was 8.03 µM and the “FPR1 (rel. eff.)” value (FPR1; calcium, FLIPR Tetra) was 62.

In the case of `COc1ccccc1NC(=O)C1C(C(=O)O)C2C=CC1C21CC1` (racemic) [Compound 29, (+/−)-(1S,4R,5S,6R)-6-((2-Methoxyphenyl)carbamoyl)spiro[bicyclo[2.2.1]hept[2]ene-7,1′-cyclopropane]-5-carboxylic Acid], the EC50 (FPRL1; [1]) is reported as 3170 nM and the “FPRL1 (rel. eff.)” value (FPRL1; calcium, FLIPR Tetra) is reported as 1.1.

In the case of `N#Cc1ccc(-c2ccc(NC(=O)C3C(C(=O)O)C4C=CC3C43CC3)cc2)cc1` (racemic) [Compound 30, (+/−)-(1S,4R,5S,6R)-6-((4′-Cyano-[1,1′-biphenyl]-4-yl)carbamoyl)spiro[bicyclo-[2.2.1]hept[2]ene-7,1′-cyclopropane]-5-carboxylic Acid], the EC50 (FPRL1; [1]) is reported as 2880 nM and the “FPRL1 (rel. eff.)” value (FPRL1; calcium, FLIPR Tetra) is reported as 0.97.

With `O=C(O)C1C(C(=O)Nc2cccc(C(F)(F)F)c2)C2CCC1C21CC1` (racemic) [Compound 37, (+/−)-(1R,2S,3R,4S)-3-β3-(Trifluoromethyl)phenyl)carbamoyl)spiro[bicyclo-[2.2.1]heptane-7,1′-cyclopropane]-2-carboxylic Acid] the EC50 (FPRL1; [1]) was 978 nM and the “FPRL1 (rel. eff.)” value (FPRL1; calcium, FLIPR Tetra) was 0.86.

With `O=C(O)[C@@H]1[C@H](C(=O)Nc2ccc(Cl)c(Cl)c2)[C@@H]2CC[C@H]1C21CC1` (racemic) [Compound 38, (+/−)-(1R,2S,3R,4S)-3-((3,4-Dichlorophenyl)carbamoyl)spiro[bicyclo[2.2.1]heptane-7,1′-cyclopropane]-2-carboxylic Acid] the EC50 (FPRL1; [1]) was 498 nM and the “FPRL1 (rel. eff.)” value (FPRL1; calcium, FLIPR Tetra) was 1.00.

`COc1ccccc1NC(=O)[C@H]1[C@@H](C(=O)O)[C@H]2CC[C@@H]1C21CC1` (racemic) [Compound 39, (+/−)-(1R,2S,3R,4S)-3-((2-Methoxyphenyl)carbamoyl)spiro[bicyclo[2.2.1]heptane-7,1′-cyclopropane]-2-carboxylic Acid] was tested, and the EC50 (FPRL1; [1]) was greater than 3000 nM and the “FPRL1 (rel. eff.)” value (FPRL1; calcium, FLIPR Tetra) was 1.2.

With `NC(=O)C1C(C(=O)Nc2ccc(Br)cc2)C2C=CC1C21CC1` (racemic) [Compound 47, (+/−)-(1R,4S,5R,6S)—N-5-(4-Bromophenyl)spiro[bicyclo[2.2.1]hept[2]ene-7,1′-cyclopropane]-5,6-dicarboxamide] the EC50 (FPR1; [2]) was greater than 10 µM.

`CC1(C)[C@@H]2CC[C@H]1[C@@H](C(=O)Nc1ccc(Br)cc1)[C@H]2C(N)=O` (racemic) [Compound 54, (+/−)-(1S,2R,3S,4R)—N2-(4-Bromophenyl)-7,7-dimethylbicyclo[2.2.1]heptane-2,3-dicarboxamide] was tested, and the EC50 (FPR1; [2]) was greater than 10 µM.

`CN(C)C(=O)C1C(C(=O)Nc2ccc(Br)cc2)C2C=CC1C21CC1` (racemic) [Compound 76, (+/−)-(1S,4S,5R,6S)—N^5-(4-Bromophenyl)-N^6,N^6-dimethylspiro[bicyclo[2.2.1]hept[2]ene]-7,1′-cyclopropane]-5,6-dicarboxamide] was tested, and the EC50 (FPRL1; [1]) was 3720 nM and the “FPRL1 (rel. eff.)” value (FPRL1; calcium, FLIPR Tetra) was 0.5.

With `COC(=O)C1C(C(=O)Nc2ccc(Br)cc2)C2CCC1C21CC1` (racemic) [Compound 83, (+/−)-(1S,4S,5R,6S)-Methyl 2-((4-bromophenyl)carbamoyl)spiro[bicyclo[2.2.1]heptane-7,1′-cyclopropane]-3-carboxylate] the EC50 (FPRL1; [1]) was 1680 nM and the “FPRL1 (rel. eff.)” value (FPRL1; calcium, FLIPR Tetra) was 0.68.

`CCOC(=O)[C@@H]1[C@H](C(=O)Nc2ccc(Br)cc2)[C@@H]2CC[C@H]1C21CC1` (racemic) [Compound 84, (+/−)-(1S,2R,3S,4R)-Ethyl 2-((4-bromophenyl)carbamoyl)spiro[bicyclo[2.2.1]heptane-7,1′-cyclopropane]-3-carboxylate] was tested, and the EC50 (FPRL1; [1]) was 1370 nM and the “FPRL1 (rel. eff.)” value (FPRL1; calcium, FLIPR Tetra) was 0.74.

`O=C1[C@@H]2[C@H](C(=O)N1c1ccc(Br)cc1)[C@@H]1CC[C@H]2C12CC2` [Compound 90, (3aR,4S,7R,7aS)-2-(4-Bromophenyl)-hexahydro-1H-spiro[4,7-methanoisoindole-8,1′-cyclopropane]-1,3(2H)-dione] was tested, and the EC50 (FPRL1; [1]) was 6560 nM and the “FPRL1 (rel. eff.)” value (FPRL1; calcium, FLIPR Tetra) was 0.38.

“(+/−)-(1R,2S,3R,4S)-3-((4-(Methylsulfonyl)phenyl)carbamoyl)spiro[bicyclo[2.2.1]-heptane-7,1′-cyclopropane]-2-carboxylic Acid [Compound 71]” showed an EC50 (FPR1; [2]) greater than 10 µM.
